Reference: publication PMC8443589, “Modelling human liver fibrosis in the context of non-alcoholic steatohepatitis using a microphysiological system” (Communications Biology, 2021)

Legend:
Type in all cases: cell-based, human
[1] = system: liver MPS NASH model (PHH, KC and HSC co-cultures); experiment: Cue study: pro-fibrotic biomarkers TIMP-1, pro-collagen 1, fibronectin (Fig 5c); settings: fat medium + cue
Description: Assessment of gene expression changes was supplemented by assessment of the secretome produced by NASH microtissues in the MPS after exposure to the various cues. Increased pro-inflammatory cytokine secretion is a defining characteristic in NASH patients, so we conducted a Luminex cytokine array covering 42 different biomarkers, cytokines and chemokines secreted into the culture media of the different microtissues at multiple time points. We consistently detected 27 out of the 42 biomarkers and observed that there was differential expression of cytokines and chemokines driven by the different cues applied to the micro-tissue (Fig. 5a, b). The LPS cue and the presence of higher NPC numbers were responsible for driving the largest increase in cytokine and chemokine release, with the largest increases in cytokines measured on day 14 (Fig. 5b). […] Similarly, to the cytokine production, these changes were not further enhanced by combining cues, as all the cue combinations containing TGFβ had the highest expression (Supp. Fig. 17c).
Fig. 5 Systems biology interrogation of liver MPS NASH model to determine physiologically relevant cues that promote soluble biomarker changes to mimic advanced NASH disease state. PHH, KC and HSC co-cultures were cultured in the MPS platform under a variety of conditions for 14 days to test number of NPCs, presence of fat, fructose, cholesterol, LPS and TGFβ for effects on the soluble biomarker profile of the liver MPS NASH model. Expression of biomarkers, cytokines and chemokines were compared, all concentrations were normalised by Z-transformation to allow comparison and shown relative to mean for each marker (white = not detected). a Cytokine expression compared with varying levels of NPCs; b for the high NPC group in the presence of additional cues; c Expression of pro-fibrotic biomarkers with varying NPC content and with additional varying cues in high NPC condition (additional data in Supp. Fig. 17). d Graphical summary of the changes that occur in the NASH model in the presence of Fat and Fat + TGFβ. All data were generated from a minimum of three independent replicate samples per condition.
The MPS LC12 plates consists of 12 individual bioreactors that contain pneumatically driven micro-pumps to recirculate cell culture medium through a collagen-coated scaffold. Cells were cultured using the protocol previously described[20],[21], but briefly, PHH were seeded at a density of 6 × 10^5 viable cells per well on the LC12 plates with each NPC population (KC and/or HSC) at a density of 6 × 10^4 viable cells per well. Each well contained a final volume of 1.6 mL of medium per well and maintained under a flow rate of 1.0 µL/s. Cells were seeded in Williams E medium containing primary hepatocyte thawing and plating supplements (Life Technologies, USA) and cultured initially under downward flow for 8 h before the flow was automatically reversed to upward flow for the next 16 h of culture. Microtissues were then cultured in either HEP-Lean or HEP-Fat medium, both media’s are proprietary to CN Bio Innovations Ltd. The HEP-Fat medium is a derivative of the HEP-LEAN medium and contains a mixture of saturated and unsaturated FFAs, as well as physiologically relevant quantities of insulin and sugars. Complete media changes were performed on all wells every 48–72 h. For certain experiments, the media was supplemented with additional additives from day 4 onwards: 1 ng/ml LPS (lipopolysaccharides from Escherichia coli O111:B4) (Sigma Aldrich, UK), 1 ng/ml recombinant TGF beta 1 protein (Abcam, UK); 500 µM Fructose (Sigma Aldrich, UK), 50 µg/ml Cholesterol (Sigma Aldrich, UK). […]

[2] = system: liver MPS NASH model (PHH, KC and HSC co-cultures); experiment: Cue study: secreted cytokines and chemokines (Luminex) with varying NPC number and added cues (Fig 5a, 5b)
Description: There is only limited understanding of the pathogenic drivers of NASH and their interaction, principally due to a lack of translational models that are amenable to detailed molecular analysis[2],[34]. Here, a systems biology ‘cue-signal-analysis’ paradigm[35],[36] was utilised to produce large factorial datasets to enable the identification of molecular pathways of importance. […] To create varying set ups of the NASH microtissues we created hepatocyte microtissues in the MPS with high numbers of NPC (60,000 KC and HSC—equivalent to 10% of microtissue population) and low numbers of NPCs (6000 KC and HSC—equivalent to 1% of microtissue), representing physiological and non-physiological cell ratios respectively. Next, we took these different microtissues and cultured them in media with or without FFA. Finally, we supplemented the media with lipopolysaccharide (LPS), TGFβ, fructose or cholesterol either as single ‘cues’, in pairs or all together (Fig. 4a). ‘Cues’ were selected for clinical association with NASH. LPS, is a pleiotropic inflammatory molecule, it is proposed to reach the liver via the hepatic portal vein after release from the gastrointestinal tract, contributing to disease progression[37],[38]. TGFβ has been extensively studied in relation to fibrosis due to its regulation of genes controlling collagen and matrix-modifying enzymes. Fructose is a key substrate for de-novo lipogenesis, a process that has been identified as a key event in lipid accumulation within NAFLD patients. Finally, cholesterol accumulation has also been linked to NASH disease aetiology.
Assessment of gene expression changes was supplemented by assessment of the secretome produced by NASH microtissues in the MPS after exposure to the various cues. Increased pro-inflammatory cytokine secretion is a defining characteristic in NASH patients, so we conducted a Luminex cytokine array covering 42 different biomarkers, cytokines and chemokines secreted into the culture media of the different microtissues at multiple time points. […]

[3] = system: liver MPS NASH model (PHH, KC and HSC co-cultures); experiment: Cue study: albumin production (ELISA)

CC(C)CCC[C@@H](C)[C@H]1CC[C@H]2[C@@H]3CC=C4C[C@@H](O)CC[C@]4(C)[C@H]3CC[C@]12C [Cholesterol]
Fibronectin (Fold change in cytokine production compared to control) ([1]; Day 6, high NPC): 0.5839 | Pro-collagen 1 (Fold change in cytokine production compared to control) ([1]; Day 6, high NPC): -0.1232 | TIMP-1 (Fold change in cytokine production compared to control) ([1]; Day 6, high NPC): -0.5668 | Fibronectin (Fold change in cytokine production compared to control) ([1]; Day 11, high NPC): 0.3927 | Pro-collagen 1 (Fold change in cytokine production compared to control) ([1]; Day 11, high NPC): 0.4365 | TIMP-1 (Fold change in cytokine production compared to control) ([1]; Day 11, high NPC): -0.1305 | Fibronectin (Fold change in cytokine production compared to control) ([1]; Day 14, high NPC): -0.4332 | Pro-collagen 1 (Fold change in cytokine production compared to control) ([1]; Day 14, high NPC): 0.3527 | TIMP-1 (Fold change in cytokine production compared to control) ([1]; Day 14, high NPC): -0.3247 | EGF relative expression (z-transformation) ([2]; Day 6, Fat media + cue): -2.017 | Eotaxin relative expression (z-transformation) ([2]; Day 6, Fat media + cue): -0.7967 | FGF-2 relative expression (z-transformation) ([2]; Day 6, Fat media + cue): -0.2249 | Fit-3L relative expression (z-transformation) ([2]; Day 6, Fat media + cue): -1.968 | Fractalkine relative expression (z-transformation) ([2]; Day 6, Fat media + cue): -1.501 | G-CSF relative expression (z-transformation) ([2]; Day 6, Fat media + cue): -0.1828 | GM-CSF relative expression (z-transformation) ([2]; Day 6, Fat media + cue): -0.6958 | GRO relative expression (z-transformation) ([2]; Day 6, Fat media + cue): -0.8479 | IFN-a2 relative expression (z-transformation) ([2]; Day 6, Fat media + cue): -1.086 | IL-1RA relative expression (z-transformation) ([2]; Day 6, Fat media + cue): -1.579 | IL-4 relative expression (z-transformation) ([2]; Day 6, Fat media + cue): -1.537 | IL-6 relative expression (z-transformation) ([2]; Day 6, Fat media + cue): -0.8492 | IL-7 relative expression (z-transformation) ([2]; Day 6, Fat media + cue): -1.138 | IL-8 relative expression (z-transformation) ([2]; Day 6, Fat media + cue): -1.037 | IL-15 relative expression (z-transformation) ([2]; Day 6, Fat media + cue): -1.447 | IP-10 relative expression (z-transformation) ([2]; Day 6, Fat media + cue): -1.086 | MCP-1 relative expression (z-transformation) ([2]; Day 6, Fat media + cue): -1.585 | MCP-3 relative expression (z-transformation) ([2]; Day 6, Fat media + cue): -1.263 | MDC relative expression (z-transformation) ([2]; Day 6, Fat media + cue): -0.4545 | MIP-1a relative expression (z-transformation) ([2]; Day 6, Fat media + cue): -0.7293 | MIP-1b relative expression (z-transformation) ([2]; Day 6, Fat media + cue): -0.9104 | TNFa relative expression (z-transformation) ([2]; Day 6, Fat media + cue): -0.774 | VEGF relative expression (z-transformation) ([2]; Day 6, Fat media + cue): -0.01821 | EGF relative expression (z-transformation) ([2]; Day 11, Fat media + cue): 1.504 | Eotaxin relative expression (z-transformation) ([2]; Day 11, Fat media + cue): -0.8044 | FGF-2 relative expression (z-transformation) ([2]; Day 11, Fat media + cue): 0.794 | Fractalkine relative expression (z-transformation) ([2]; Day 11, Fat media + cue): -1.145 | G-CSF relative expression (z-transformation) ([2]; Day 11, Fat media + cue): -0.8882 | GRO relative expression (z-transformation) ([2]; Day 11, Fat media + cue): -1.084 | IFN-a2 relative expression (z-transformation) ([2]; Day 11, Fat media + cue): -0.9638 | IL-1RA relative expression (z-transformation) ([2]; Day 11, Fat media + cue): -1.623 | IL-4 relative expression (z-transformation) ([2]; Day 11, Fat media + cue): -1.08 | IL-6 relative expression (z-transformation) ([2]; Day 11, Fat media + cue): -0.9589 | IL-7 relative expression (z-transformation) ([2]; Day 11, Fat media + cue): -0.957 | IL-8 relative expression (z-transformation) ([2]; Day 11, Fat media + cue): -1.364 | IL-15 relative expression (z-transformation) ([2]; Day 11, Fat media + cue): -1.997 | IP-10 relative expression (z-transformation) ([2]; Day 11, Fat media + cue): -1.199 | MCP-1 relative expression (z-transformation) ([2]; Day 11, Fat media + cue): -2.479 | MCP-3 relative expression (z-transformation) ([2]; Day 11, Fat media + cue): -1.098 | MDC relative expression (z-transformation) ([2]; Day 11, Fat media + cue): -1.98 | MIP-1a relative expression (z-transformation) ([2]; Day 11, Fat media + cue): -0.8147 | MIP-1b relative expression (z-transformation) ([2]; Day 11, Fat media + cue): -0.9274 | VEGF relative expression (z-transformation) ([2]; Day 11, Fat media + cue): -1.0705 | Eotaxin relative expression (z-transformation) ([2]; Day 14, Fat media + cue): -0.1613 | FGF-2 relative expression (z-transformation) ([2]; Day 14, Fat media + cue): -0.6319 | Fractalkine relative expression (z-transformation) ([2]; Day 14, Fat media + cue): -0.3551 | G-CSF relative expression (z-transformation) ([2]; Day 14, Fat media + cue): -1.591 | GM-CSF relative expression (z-transformation) ([2]; Day 14, Fat media + cue): -1.001 | GRO relative expression (z-transformation) ([2]; Day 14, Fat media + cue): -0.8633 | IFN-a2 relative expression (z-transformation) ([2]; Day 14, Fat media + cue): -1.669 | IL-1RA relative expression (z-transformation) ([2]; Day 14, Fat media + cue): -1.544 | IL-4 relative expression (z-transformation) ([2]; Day 14, Fat media + cue): -1.577 | IL-6 relative expression (z-transformation) ([2]; Day 14, Fat media + cue): -0.7817 | IL-7 relative expression (z-transformation) ([2]; Day 14, Fat media + cue): -1.113 | IL-8 relative expression (z-transformation) ([2]; Day 14, Fat media + cue): -1.061 | IL-15 relative expression (z-transformation) ([2]; Day 14, Fat media + cue): -1.074 | IP-10 relative expression (z-transformation) ([2]; Day 14, Fat media + cue): -0.9907 | MCP-1 relative expression (z-transformation) ([2]; Day 14, Fat media + cue): -1.142 | MCP-3 relative expression (z-transformation) ([2]; Day 14, Fat media + cue): -1.036 | MDC relative expression (z-transformation) ([2]; Day 14, Fat media + cue): -1.936 | MIP-1a relative expression (z-transformation) ([2]; Day 14, Fat media + cue): -0.7839 | MIP-1b relative expression (z-transformation) ([2]; Day 14, Fat media + cue): -0.9403 | TNFa relative expression (z-transformation) ([2]; Day 14, Fat media + cue): -0.8637 | VEGF relative expression (z-transformation) ([2]; Day 14, Fat media + cue): 3.004 | TNFα ([2]; day 14): greatest increase | Albumin production [3]: to a lesser extent
